Measurements: the supplement of paper PMC10307832

Columns and labels:
Assay in all cases: relative viability (nuclei count vs DMSO), 5 days (fraction); higher = more cells survive
[1] = compound: C=CCn1c(=O)c2cnc(Nc3ccc(N4CCN(C)CC4)cc3)nc2n1-c1cccc(C(C)(C)O)n1 [Adavosertib] + Cc1nc(NC(=O)N2CCC[C@H]2C(N)=O)sc1-c1ccnc(C(C)(C)C(F)(F)F)c1 [Alpelisib] (partner 2 µM)
Outline: (§1)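 Lung cancer cell lines in 1536-well plates got either a single drug or a fixed anchor-drug dose together with five library-drug doses (not always all listed) in √10 steps, by pin tool, on the day after seeding. Nuclei were counted after 5 days, and relative viability is the treated-to-vehicle ratio of nuclei counts. Values are medians of duplicate plates.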

[2] = compound: C=CCn1c(=O)c2cnc(Nc3ccc(N4CCN(C)CC4)cc3)nc2n1-c1cccc(C(C)(C)O)n1 [Adavosertib] + Nc1ncn([C@H]2C[C@H](O)[C@@H](CO)O2)c(=O)n1 [Decitabine] (partner 2 µM)
Outline: as §1

[3] = compound: COc1nc(N)nc2c1ncn2[C@@H]1O[C@H](CO)[C@@H](O)[C@@H]1O [Nelarabine] + C[C@@H](Oc1cc(-c2cnn(C3CCNCC3)c2)cnc1N)c1c(Cl)ccc(F)c1Cl [Crizotinib] (partner 1 µM)
Outline: as §1

[4] = compound: COc1nc(N)nc2c1ncn2[C@@H]1O[C@H](CO)[C@@H](O)[C@@H]1O [Nelarabine] + Cc1nc(NC(=O)N2CCC[C@H]2C(N)=O)sc1-c1ccnc(C(C)(C)C(F)(F)F)c1 [Alpelisib] (partner 2 µM)
Outline: as §1

EMC-BAC-2
relative viability ([1]; first compound 0.01 µM): 0.736
relative viability ([1]; first compound 0.03162 µM): 0.737
relative viability ([1]; first compound 0.1 µM): 0.722
relative viability ([1]; first compound 0.3162 µM): 0.678
relative viability ([2]; first compound 0.03162 µM): 0.997
relative viability ([2]; first compound 0.1 µM): 1.08
relative viability ([2]; first compound 0.3162 µM): 1.04
relative viability ([3]; first compound 0.01 µM): 0.734
relative viability ([3]; first compound 0.03162 µM): 0.624
relative viability ([3]; first compound 0.1 µM): 0.782
relative viability ([3]; first compound 0.3162 µM): 0.843
relative viability ([3]; first compound 1 µM): 0.683
relative viability ([4]; first compound 0.01 µM): 0.794
relative viability ([4]; first compound 0.03162 µM): 0.585
relative viability ([4]; first compound 0.1 µM): 0.73
relative viability ([4]; first compound 0.3162 µM): 0.799
relative viability ([4]; first compound 1 µM): 0.815
